In the assay the target is GST-Bcl-2 (Homo sapiens, UniProt P10415). Nature of the assay: Time Resolved-Fluorescence Resonance Energy Transfer (TR-FRET) Bcl-2 binding assay. Conditions: competition with F-Bak peptide probe (100 nM); GST-Bcl-2 1 nM; Tb-anti-GST 1 nM; 3 hours at room temperature; Wang's equation. The procedure, abridged:
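Competition TR-FRET: GST-Bcl-2 with fluorescent Bak peptide probe and Tb-anti-GST antibody, compounds serially diluted from 50 μM (2× start, 10% DMSO).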
In general terms: In TR-FRET formats the signal depends on donor and acceptor labels being close together.

Structures are written as SMILES. Bounds are passed on as bounds.

As usually defined, the Ki is a dissociation constant, usually derived from enzyme kinetics or from competition with a known ligand.

Chain of GST-Bcl-2 (P10415 whole entry): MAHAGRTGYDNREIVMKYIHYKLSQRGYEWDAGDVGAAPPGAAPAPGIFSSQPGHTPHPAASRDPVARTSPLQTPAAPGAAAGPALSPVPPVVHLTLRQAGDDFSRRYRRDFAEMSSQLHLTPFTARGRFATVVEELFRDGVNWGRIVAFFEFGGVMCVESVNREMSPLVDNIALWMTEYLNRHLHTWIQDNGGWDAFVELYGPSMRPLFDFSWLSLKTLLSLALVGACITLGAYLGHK

For `CC1(C)CCC(CN2CCN(c3ccc(C(=O)NS(=O)(=O)c4ccc(OCC5(F)CCOCC5)c(Cl)c4)c(Oc4cc5cc[nH]c5cc4F)c3)CC2)=C(c2ccc(Cl)cc2)C1` [Example 412, N-({3-chloro-4-[(4-fluorotetrahydro-2H-pyran-4-yl)methoxy]phenyl}sulfonyl)-4-(4-{[2-(4-chlorophenyl)-4,4-dimethylcyclohex-1-en-1-yl]methyl}piperazin-1-yl)-2-[(6-fluoro-1H-indol-5-yl)oxy]benzamide], the Ki was determined as 1.12 nM.

Take `CC1(C)CCC(CN2CCN(c3ccc(C(=O)NS(=O)(=O)c4ccc(NCC5CCC(C)(O)CC5)c([N+](=O)[O-])c4)c(Oc4cnc(N)c(Cl)c4)c3)CC2)=C(c2ccc(Cl)cc2)C1` (stereo not drawn) [Example 434, 2-[(6-amino-5-chloropyridin-3-yl)oxy]-4-(4-{[2-(4-chlorophenyl)-4,4-dimethylcyclohex-1-en-1-yl]methyl}piperazin-1-yl)-N-[(4-{[(trans-4-hydroxy-4-methylcyclohexyl)methyl]amino}-3-nitrophenyl)sulfonyl]benzamide]: the Ki was < 0.01 nM. In turn, `CC1(C)CCC(CN2CCN(c3ccc(C(=O)NS(=O)(=O)c4cnc(OC[C@H]5CC[C@H](O)CC5)c(Cl)c4)c(Oc4ccc(F)c5[nH]ncc45)c3)CC2)=C(c2ccc(Cl)cc2)C1` [Example 419, N-({5-chloro-6-[(trans-4-hydroxycyclohexyl)methoxy]pyridin-3-yl}sulfonyl)-4-(4-{[2-(4-chlorophenyl)-4,4-dimethylcyclohex-1-en-1-yl]methyl}piperazin-1-yl)-2-[(7-fluoro-1H-indazol-4-yl)oxy]benzamide] registered a Ki of 0.012 nM.

The compound `CC1(C)CCC(CN2CCN(c3ccc(C(=O)NS(=O)(=O)c4ccc(NC[C@H]5CC[C@H](C#N)CC5)c([N+](=O)[O-])c4)c(Oc4cnc(N)c(Cl)c4)c3)CC2)=C(c2ccc(Cl)cc2)C1` [Example 401, Trans-2-[(6-amino-5-chloropyridin-3-yl)oxy]-4-(4-{[2-(4-chlorophenyl)-4,4-dimethylcyclohex-1-en-1-yl]methyl}piperazin-1-yl)-N-[(4-{[(4-cyanocyclohexyl)methyl]amino}-3-nitrophenyl)sulfonyl]benzamide] had a Ki of 0.035 nM. The result for `CC1(C)CCC(CN2CCN(c3ccc(C(=O)NS(=O)(=O)c4ccc(NCC5CN(C6COC6)CCO5)c([N+](=O)[O-])c4)c(Oc4cc5cc[nH]c5cc4F)c3)CC2)=C(c2ccc(Cl)cc2)C1` (centres unmarked) [Example 422, 4-(4-{[2-(4-chlorophenyl)-4,4-dimethylcyclohex-1-en-1-yl]methyl}piperazin-1-yl)-2-[(6-fluoro-1H-indol-5-yl)oxy]-N-{[3-nitro-4-({[4-(oxetan-3-yl)morpholin-2-yl]methyl}amino)phenyl]sulfonyl}benzamide] reads < 0.01 nM; that for `CC1(C)CCC(CN2CCN(c3ccc(C(=O)NS(=O)(=O)c4ccc(OC[C@H]5CC[C@](C)(O)CC5)c([N+](=O)[O-])c4)c(Oc4cnc(N)c(Cl)c4)c3)CC2)=C(c2ccc(Cl)cc2)C1` [Example 441, 2-[(6-amino-5-chloropyridin-3-yl)oxy]-4-(4-{[2-(4-chlorophenyl)-4,4-dimethylcyclohex-1-en-1-yl]methyl}piperazin-1-yl)-N-({4-[(trans-4-hydroxy-4-methylcyclohexyl)methoxy]-3-nitrophenyl}sulfonyl)benzamide], 0.054 nM; that for `CC1(C)CCC(CN2CCN(c3ccc(C(=O)NS(=O)(=O)c4cnc(OC[C@H]5CC[C@H](O)CC5)c(Cl)c4)c(Oc4cc(F)cc5[nH]ncc45)c3)CC2)=C(c2ccc(Cl)cc2)C1` [Example 414, N-({5-chloro-6-[(trans-4-hydroxycyclohexyl)methoxy]pyridin-3-yl}sulfonyl)-4-(4-{[2-(4-chlorophenyl)-4,4-dimethylcyclohex-1-en-1-yl]methyl}piperazin-1-yl)-2-[(6-fluoro-1H-indazol-4-yl)oxy]benzamide], 0.014 nM. `CC1(C)CCC(CN2CCN(c3ccc(C(=O)NS(=O)(=O)c4ccc(OCC5(F)CCN(C6COC6)CC5)c([N+](=O)[O-])c4)c(Oc4cnc(N)c(Cl)c4)c3)CC2)=C(c2ccc(Cl)cc2)C1` [Example 432, 2-[(6-amino-5-chloropyridin-3-yl)oxy]-4-(4-{[2-(4-chlorophenyl)-4,4-dimethylcyclohex-1-en-1-yl]methyl}piperazin-1-yl)-N-[(4-{[4-fluoro-1-(oxetan-3-yl)piperidin-4-yl]methoxy}-3-nitrophenyl)sulfonyl]benzamide]: the Ki is < 0.01 nM. Turning to `CC1(C)CCC(CN2CCN(c3ccc(C(=O)NS(=O)(=O)c4cnc(OCC5(F)CCOCC5)c(Cl)c4)c(Oc4cccc5[nH]nc(N)c45)c3)CC2)=C(c2ccc(Cl)cc2)C1` [Example 430, 2-[(3-amino-1H-indazol-4-yl)oxy]-N-({5-chloro-6-[(4-fluorotetrahydro-2H-pyran-4-yl)methoxy]pyridin-3-yl}sulfonyl)-4-(4-{[2-(4-chlorophenyl)-4,4-dimethylcyclohex-1-en-1-yl]methyl}piperazin-1-yl)benzamide], the Ki is < 0.01 nM. In the case of `CC1(C)CCC(CN2CCN(c3ccc(C(=O)NS(=O)(=O)c4ccc(NC[C@H]5CC[C@H](N6CCOCC6)CC5)c([N+](=O)[O-])c4)c(Oc4cnc(N)c(Cl)c4)c3)CC2)=C(c2ccc(Cl)cc2)C1` [Example 451, 2-[(6-amino-5-chloropyridin-3-yl)oxy]-4-(4-{[2-(4-chlorophenyl)-4,4-dimethylcyclohex-1-en-1-yl]methyl}piperazin-1-yl)-N-{[4-({[trans-4-(morpholin-4-yl)cyclohexyl]methyl}amino)-3-nitrophenyl]sulfonyl}benzamide] it was < 0.01 nM.

Compound `CC(C)(C)OC(=O)N1CCC(c2ccc(Cl)cc2)=C(CN2CCN(c3ccc(C(=O)NS(=O)(=O)c4cnc(OCC5(F)CCOCC5)c(Cl)c4)c(Oc4cc5cc[nH]c5cc4F)c3)CC2)C1` [Example 416, tert-butyl 5-[(4-{4-[({5-chloro-6-[(4-fluorotetrahydro-2H-pyran-4-yl)methoxy]pyridin-3-yl}sulfonyl)carbamoyl]-3-[(6-fluoro-1H-indol-5-yl)oxy]phenyl}piperazin-1-yl)methyl]-4-(4-chlorophenyl)-3,6-dihydropyridine-1(2H)-carboxylate] yielded a Ki of 7.44 nM.

The record behind these values is patent US9029404B2, “Apoptosis-inducing agents for the treatment of cancer and immune and autoimmune diseases” (AbbVie Inc., priority 2008, dated 2015).
